From ChEMBL document CHEMBL1157499, “Synthesis and biological evaluation of 1-(benzenesulfonamido)-2-[5-(N-hydroxypyridin-2(1H)-one)]acetylene regioisomers: a novel class of 5-lipoxygenase inhibitors” (Bioorg Med Chem Lett, 2008)
Calls of active or inactive are those of the source. The calls are words filed in the database; no cut-off is given here.

System: Rattus norvegicus
Assay: Antiinflammatory activity against carrageenan-induced paw edema in po dosed rat after 3 hrs
Type: functional

Q: NS(=O)(=O)c1cccc(C#Cc2ccc(=O)n(O)c2)c1 was tested. Which Activity did it give?
A: inactive

Q: For NS(=O)(=O)c1ccc(C#Cc2ccc(=O)n(O)c2)cc1, which Activity is on record?
A: inactive

Q: How did the ED50 turn out when NS(=O)(=O)c1ccccc1C#Cc1ccc(=O)n(O)c1 was run?
A: 86 mg/kg
